Measurements published in the supplement of paper PMC11699113.

System: ED cells (E. derm NBM-6, ATCC CCL-57)
Experiment: cell viability (ATP, CellTiter-Glo) relative to untreated control (fraction of control); higher = less cytotoxic

O=C1Nc2ccc(Cl)cc2[C@@](C#CC2CC2)(C(F)(F)F)O1 [efavirenz]
cell viability
Conditions	0.5 µM	2 µM	5 µM	10 µM	20 µM	40 µM	50 µM	75 µM	100 µM	150 µM
incubation time: 1h	1.05	1.04	1.02	0.985	0.902	0.523	0.35	0.164	0.0891	0.0482
incubation time: 24h	0.985	0.989	1.01	0.999	0.979	0.618	0.194	0.00645	0.0077	0.00431
incubation time: 72h	1.04	1.04	1.04	1.03	1.01	0.907	0.659	0.0635	0.0176	0.00453
incubation time: 144h	1.02	1.02	1.02	1	0.969	0.862	0.574	0.128	0.113	0.00579

Nc1nc(=O)n([C@@H]2CS[C@H](CO)O2)cc1F [emtricitabine]
cell viability
Conditions	0.5 µM	2 µM	5 µM	10 µM	25 µM	50 µM	80 µM	100 µM	200 µM	300 µM
incubation time: 1h	0.999	0.996	1.01	1.01	0.998	1	1.01	1.01	0.998	1.01
incubation time: 24h	0.998	1.02	1.02	1.04	1.04	1.03	1.03	1.03	1.01	1
incubation time: 72h	1.03	1.05	1.05	1.05	1.05	1.04	1.04	1.03	0.999	0.999
incubation time: 144h	1.03	1.05	1.06	1.06	1.06	1.05	1.04	1.05	1.05	1.02

CC[C@H](C)[C@H](NC(=O)[C@H](CC(C)C)NC(=O)[C@H](CO)NC(=O)[C@H](Cc1cnc[nH]1)NC(=O)[C@@H](NC(=O)[C@H](CC(C)C)NC(=O)[C@H](CO)NC(=O)[C@@H](NC(=O)[C@H](Cc1ccc(O)cc1)NC(C)=O)[C@@H](C)O)[C@@H](C)CC)C(=O)N[C@@H](CCC(=O)O)C(=O)N[C@@H](CCC(=O)O)C(=O)N[C@@H](CO)C(=O)N[C@@H](CCC(N)=O)C(=O)N[C@@H](CC(N)=O)C(=O)N[C@@H](CCC(N)=O)C(=O)N[C@@H](CCC(N)=O)C(=O)N[C@@H](CCC(=O)O)C(=O)N[C@@H](CCCCN)C(=O)N[C@@H](CC(N)=O)C(=O)N[C@@H](CCC(=O)O)C(=O)N[C@@H](CCC(N)=O)C(=O)N[C@@H](CCC(=O)O)C(=O)N[C@@H](CC(C)C)C(=O)N[C@@H](CC(C)C)C(=O)N[C@@H](CCC(=O)O)C(=O)N[C@@H](CC(C)C)C(=O)N[C@@H](CC(=O)O)C(=O)N[C@@H](CCCCN)C(=O)N[C@@H](Cc1c[nH]c2ccccc12)C(=O)N[C@@H](C)C(=O)N[C@@H](CO)C(=O)N[C@@H](CC(C)C)C(=O)N[C@@H](Cc1c[nH]c2ccccc12)C(=O)N[C@@H](CC(N)=O)C(=O)N[C@@H](Cc1c[nH]c2ccccc12)C(=O)N[C@@H](Cc1ccccc1)C(N)=O [enfuvirtide]
cell viability
Conditions	0.03 µM	0.06 µM	0.125 µM	0.25 µM	0.5 µM	1 µM	2 µM	5 µM	8 µM	11 µM
incubation time: 1h	1.05	1.06	1.06	1.07	1.05	1.05	1.05	1.05	1.06	1.06
incubation time: 24h	1.06	1.07	1.06	1.07	1.06	1.06	1.06	1.07	1.05	1.04
incubation time: 72h	1.05	1.06	1.06	1.08	1.06	1.06	1.07	1.06	1.05	1.06
incubation time: 144h	1.02	1.03	1.03	1.04	1.03	1.03	1.04	1.04	1.06	1.04
